# What was measured:
# MC3T3-E1 cells = assay: ECM mineralization by Alizarin Red stain; assay type: cell-based, mouse; details: for matrix mineralization (Alizarin Red): MC3T3-E1, as early as 14 days of treatment
# Procedure: Differentiation of MC3T3-E1 cells was induced with 50 μg/mL ascorbic acid (Sigma-Aldrich) and 5 mM β-glycerophosphate (Sigma-Aldrich) in medium containing 5% FBS. RAW 264.7 cells were cultured in Dulbecco's modified Eagle's medium (DMEM, Invitrogen, Carlsbad, Calif., USA) supplemented with 10% fetal bovine serum (Hyclone) and 2 mM glutamine (Gibco, Carlsbad, Calif., USA). Cells were seeded in culture dishes at a density of 20,000 cells/cm^2 and cultured overnight unless stated otherwise. Before cells were treated with compounds, the culture medium was changed.
# Calvariae from 2 to 3-day-old and from 7-week old C57BL/6 mice were dissected aseptically. The calvarial bone explants were cultured in 48-well plates in α-MEM (Biochrom) containing 10% FCS (Biochrom), 50 μg/mL ascorbic acid (Sigma-Aldrich), 5 mM β-glycerophosphate (Sigma-Aldrich), and 10 μg/mL gentamicin (Sigma-Aldrich). The day after dissection, medium was changed, and a part of the explants was treated with 3 μM L- or DL-SFN for 12 days. Thereafter, one part of the calvariae were fixed for 1 hour in 4% para-formaldehyde (PFA), and mineralization was measured by Alizarin Red S stain (Sigma-Aldrich). For this purpose, Alizarin Red S dye was extracted using 10% cetylpyridinium chloride (CPC) in 10 mM sodiumphosphate (pH=7.0) for 45 minutes at room temperature. Alizarin Red S absorbance was measured at 562 nm in a multi-plate reader (Tecan, Maennedorf, Switzerland) and normalized to total protein amount measured by bicinchoninic acid assay (Thermo Fisher Scientific, Waltham, Mass., USA). From the other part of the calvariae, total RNA was extracted.
# [1] = system: sham operated or ovariectomized (OVX) C57B16/J female mice; assay: In vivo analysis of SFN effects on bone, μCT; design: species or system mouse; details: OVX mice; mitigation of the OVX-dependent decrease of trabecular number
# Procedure: Analysis of SFN on mice was performed using a protocol similar to that described elsewhere (Kong et al., Arthritis Rheum., 62:159-170 (2010)). In the experimental setting herein, eight week old sham operated or ovariectomized (OVX) C57B16/J female mice were purchased from Charles River laboratories. Mice were injected with 7.5 mM DL-SFN (200 μL of SFN at a concentration of 63.8 mg/mL/kg dissolved in ethanol and further diluted in PBS) intraperitoneally every other day for five weeks. Control mice received vehicle alone.
# Images from tibias fixed in 4% formaldehyde were acquired in a SkyScan 1174 with a resolution of 6 μm (X-ray voltage 50 kV). Image reconstruction was performed by applying a modified Feldkamp algorithm using the Skyscan Nrecon software. 3D and 2D morphometric parameters were calculated for the trabecular bone (350 consecutive slides, 6 μm thick) starting from 300 μm from the growth plate. Threshold values were applied for segmenting trabecular bone corresponding to bone mineral density values of 0.6/cm^3 calcium hydroxyapatite. 3D parameters were based on analysis of a Marching Cubes type model with a rendered surface. Calculation all of 2D areas and perimeters was based on the Pratt algorithm (Pratt et al., IEEE Trans. Biomed. Eng., 38, 306-309 (1991). Bone structural variables and nomenclature were used according to Bouxsein et al. (J. Bone Miner. Res., 25:1468-1486 (2010)).
# RAW 264.7 cells = assay: RT-qPCR mRNA expression; assay type: cell-based, mouse; details: RAW 264.7 induced with RANKL and MCSF, co-treatment with SFN
# Procedure: Total RNA was extracted using the SV Total RNA Isolation kit (Promega) following the supplier's instructions. cDNA was synthesized from about 0.5 μg RNA using the First Strand cDNA Synthesis kit (Roche) as described by the supplier. The resulting cDNAs were subjected to quantitative PCR amplification with a real-time cycler using the QUANTITECT™ SYBR® Green PCR Kit (Qiagen, Hilden, Germany) for the genes Alpl, Fas, Lox, Tet1, Tet2, and TAQMAN® Gene expression Master Mix (Applied Biosystems, Foster City, Calif., USA) for measuring Runx2, Bglap2, Colla1, Tnfsf11, and 18S rRNA expression (for primers, see Table 1). SYBR-Green RT-qPCR was started with an initial denaturation step at 95° C. for 10 minutes and then continued with 45 cycles consisting of 30 seconds denaturation at 95° C., 30 seconds annealing at primer-specific temperatures, and extension at 72° C. For measurement of the TAQMAN® assays, an initial denaturation at 95° C. for 10 minutes was applied, followed by 45 cycles alternating 60 seconds at 60° C. and 15 seconds at 95° C. All RT-qPCR assays were performed in triplicate, and expression was evaluated using the comparative quantification method (Pfaffl, Nucleic Acids Res., 29:e45 (2001)).
# [2] = system: primary mouse osteoclasts; assay: Osteoclastic resorption on dentin slices; assay type: cell-based; details: 3 μM L- or DL-SFN, 14 days
# Procedure: Primary mouse tissues or cells were obtained according to procedures that conform to the regulatory guidelines of the Institutional Animal Care and Use Committee of the Medical University of Vienna. Primary mouse osteoclasts were harvested from 8-week old C57BL/6 mice, which were sacrificed, and bone marrow cells were isolated from tibias and femurs under aseptic conditions and cultured in α-MEM (Biochrom) containing 10% FCS (Biochrom), […] (Sigma-Aldrich) and macrophage colony stimulating factor (MCSF1, 30 ng/mL). After 24 hours, non-adherent cells were seeded onto sterile, 300 μm thick dentin slices (elephant ivory) at 700,000 cells/cm^2 in αMEM supplemented with 10% FBS, 2 mM 1-glutamine, 30 μg/mL gentamycin, 20 ng/mL M-CSF, and 2 ng/mL RANKL (R&D Systems, Minneapolis, Minn., USA). Culture medium was changed twice per week, and cells were cultured for 14 days.
# After culturing the primary mouse osteoclasts for 14 days on dentin slices in the presence or absence of 3 μM L- or DL-SFN, substrates were put into water, sonicated for 10 minutes to remove living cells and air-dried. Photographs were obtained by reflected light microscopy (objective 20×) of the entire substrate surface, and resorption trails and pits were analyzed and quantified with standard image analysis software (ImageJ, rsbweb.nih.gov/ij/). […]
# MC3T3 cells = assay: Osteogenic differentiation of MC3T3 cells under EZH2 inhibition; assay type: cell-based, mouse; details: 1 μM UNC1999
# Procedure: MC3T3 cells were seeded in 6-well plates in maintenance medium (10,000 cells/cm^2). The following day, maintenance medium was replaced with osteogenic medium (αMEM supplemented with 50 μg/mL ascorbic acid (Sigma) and 4 mM beta glycerol phosphate (Sigma)) containing vehicle or EZH2 inhibitor. Three days later, vehicle or EZH2 inhibitors were added again with osteogenic medium. On day six, EZH2 inhibitor and vehicle were removed, and fresh osteogenic medium added.
# Media were changed every three days. RNA was isolated at indicated times. On day 6, cells were fixed in 10% neutral buffered formalin and stained with 5-bromo-4-chloro-3-indolyl-phosphate/nitro blue tetrazolium to monitor the enzymatic activity of alkaline phosphatase (Promega). On day 14 (AMCs) and days 21-25 (MC3T3), cells were fixed in 10% neutral buffered formalin and stained with 2% Alizarin Red to visualize calcium deposition. Absorption of alizarin red stain was normalized to total DNA as measured by Hoechst staining of the nuclei.
Molecule,matrix mineralization (Alizarin Red) (MC3T3-E1 cells),bone loss due to estrogen-deficiency [1],"expression of classical osteoclastic markers (Acp5, Clcr, Ctsk) (RAW 264.7 cells)",potency in stimulating matrix mineralization relative to DMSO (MC3T3-E1 cells; MC3T3-E1),area resorbed by primary mouse osteoclast cultures on ivory discs [2],osteogenic differentiation of MC3T3 cells (MC3T3 cells)
"C[S+](C)[O-] [DMSO, methanesulfinyl methane]",increased matrix mineralization,–,–,–,–,–
1-isothiocyanato-5-methanesulfinylpentane [SFN],increased matrix mineralization,reduced bone loss,no appreciable changes,at least four orders of magnitude more potent than DMSO,significantly reduced,–
"CCCc1cc(C)[nH]c(=O)c1CNC(=O)c1cc(-c2ccc(N3CCN(C(C)C)CC3)nc2)cc2c1cnn2C(C)C [UNC1999, N-[(6-methyl-2-oxo-4-propyl-1,2-dihydropyridin-3-yl)methyl]-1-(propan-2-yl)-6-{6-[4-(propan-2-yl)piperazin-1-yl]pyridin-3-yl}-1H-indazole-4-carboxamide]",–,–,–,–,–,promotes
